Laboratory results taken from publication PMC9919727 (Molecules, 2023).
Like-named read-outs stand apart in the source and are kept apart here.

Tests used:
[1] = target: Carbonic anhydrase II (bCA II) (Bos taurus, UniProt P00921); assay: CA II inhibition assay (4-nitrophenyl acetate hydrolysis); format: biochemical, bovine; settings: for inhibition of the enzyme CA II (in words): under the conditions of the assay
Description: For the CA II assay: Carbonic anhydrase II (bCA II, ≥3000 W-A units/mg from bovine erythrocytes) as well as 4-nitrophenyl acetate (4-NA) were purchased from Sigma.
The substrate (25 µL, [4-NA] = 0.75 mM, 0.50 mM, 0.25 mM, 0.15 mM) was added to start the enzymatic reaction. […] The relative inhibition was determined as the quotient of the slopes (compound divided by blank) of the linear ranges.

[2] = system: A375 (epithelial melanoma); assay: SRB cytotoxicity assay, A375; format: cell-based; settings: Homo sapiens, read-out: EC50 A375
Description: (§1) Expression of CA II and its involvement cancer has previously been established for A375 [82], HT29 [83] as well as for MCF-7 cells. Cell line A2780 and non-malignant fibroblasts (NIH 3T3) were employed for comparison.
(§2) NMR spectra were recorded using the Varian spectrometers (Darmstadt, Germany) DD2 and VNMRS (400 and 500 MHz, respectively). MS spectra were taken on a Advion expressionL CMS mass spectrometer (Ithaca, USA; positive ion polarity mode, solvent: methanol, solvent flow: 0.2 mL/min, spray voltage: 5.17 kV, source voltage: 77 V, APCI corona discharge: 4.2 μA, capillary temperature: 250 °C, capillary voltage: 180 V, sheath gas: N2). Thin-layer chromatography was performed on pre-coated silica gel plates supplied by Macherey-Nagel (Düren, Germany). IR spectra were recorded on a Spectrum 1000 FT-IR-spectrometer from Perkin Elmer (Rodgau, Germany). The UV/Vis-spectra were recorded on a Lambda 14 spectrometer from Perkin Elmer (Rodgau, Germany); optical rotations were measured using a JASCO-P2000 instrument (JASCO Germany GmbH, Pfungstadt, Germany) The melting points were determined using the Leica hot stage microscope Galen III (Leica Biosystems, Nussloch, Germany) and are uncorrected. The solvents were dried according to usual procedures. Microanalyses were performed with an Elementar Vario EL (CHNS) instrument (Elementar Analysensysteme GmbH, Elementar-Straße 1, D-63505 Langenselbold, Germany). All dry solvents were distilled over respective drying agents except for DMF which was distilled and stored under argon and molecular sieve. Reactions using air- or moisture-sensitive reagents were carried out under argon atmosphere in dried glassware. Triethylamine was stored over potassium hydroxide. Biological assays were performed as previously reported employing cell lines obtained from the Department of Oncology [Martin-Luther-University Halle Wittenberg; they were bought from ATCC: malignant: A 375, HT29, MCF7, and A2780; non-malignant: NIH 3T3]. Oleanolic and ursolic acid were obtained from Betulinines (Strbrna Skalice, Czech Republic) and used as received. Glycyrrhetinic acid was bought from Orgentis Chemicals GmbH (Gatersleben).
For the SRB assay: cells were seeded into 96-well plates on day zero at appropriate cell densities to prevent confluence of the cells during the period of the experiment. […] After 72 h of treatment, the supernatant media from the 96-well plates were discarded, then the cells were fixed with 10% trichloroacetic acid and allowed to rest at 4 °C. After 24 h of fixation, the cells were washed in a strip washer and then dyed with SRB solution (200 μL, 10 mM) for 20 min. […] The absorbance was measured with a 96-well plate reader from Tecan Spectra.

[3] = system: HT29 (colorectal adenocarcinoma); assay: SRB cytotoxicity assay, HT29; format: cell-based; settings: Homo sapiens, read-out: EC50 HT29
Description: as §1, §2
(§3) For the SRB assay: cells were seeded into 96-well plates on day zero at appropriate cell densities to prevent confluence of the cells during the period of the experiment. […] After 72 h of treatment, the supernatant media from the 96-well plates were discarded, then the cells were fixed with 10% trichloroacetic acid and allowed to rest at 4 °C. After 24 h of fixation, the cells were washed in a strip washer and then dyed with SRB solution (200 μL, 10 mM) for 20 min. Then the plates were washed four times with 1% acetic acid to remove the excess of the dye and allowed to air-dry overnight. Tris base solution (200 μL, 10 mM) was added to each well. The absorbance was measured with a 96-well plate reader from Tecan Spectra.

[4] = system: MCF-7 (breast adenocarcinoma); assay: SRB cytotoxicity assay, MCF-7; format: cell-based; settings: Homo sapiens, read-out: EC50 MCF-7
Description: as §1, §2, §3

[5] = system: A2780 (ovarian carcinoma); assay: SRB cytotoxicity assay, A2780; format: cell-based; settings: Homo sapiens, read-out: EC50 A2780
Description: as §1, §2, §3

[6] = system: NIH 3T3 (non-malignant fibroblasts); assay: SRB cytotoxicity assay, NIH 3T3; format: cell-based; settings: Mus musculus, read-out: EC50 NIH 3T3
Description: as §1, §2, §3

[7] = at 10 µM concentration, read-out: Inhibition [%]
[8] = A-375, SRB assay, after 72 h of treatment
[9] = HT-29, SRB assay, after 72 h of treatment
[10] = MCF7, SRB assay, after 72 h of treatment
[11] = A2780, SRB assay, after 72 h of treatment
[12] = NIH3T3, SRB assay, after 72 h of treatment, non-malignant fibroblasts

Chain of Carbonic anhydrase II (bCA II) (P00921 whole entry): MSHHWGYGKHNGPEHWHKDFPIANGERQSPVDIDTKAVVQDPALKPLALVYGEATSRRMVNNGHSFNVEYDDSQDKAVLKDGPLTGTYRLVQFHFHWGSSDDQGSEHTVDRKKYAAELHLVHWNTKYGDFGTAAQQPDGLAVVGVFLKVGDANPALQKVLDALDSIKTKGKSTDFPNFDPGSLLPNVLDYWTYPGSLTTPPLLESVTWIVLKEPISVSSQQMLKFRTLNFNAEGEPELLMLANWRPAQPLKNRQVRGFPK

| SMILES | melting point | EC50 [3, 9] | EC50 [4, 10] | EC50 [5, 11] | EC50 [6, 12] | inhibition of the enzyme CA II (in words) [1] | further results |
| --- | --- | --- | --- | --- | --- | --- | --- |
| C=C(C)[C@@H]1CC[C@]2(CO)CC[C@]3(C)[C@H](CC[C@@H]4[C@@]5(C)CC[C@H](OC(C)=O)C(C)(C)[C@@H]5CC[C@]43C)[C@@H]12 [Compound 2, 3-O-Acetyl-betulin] |  |  |  |  |  |  | inhibition rates (CA II) ([1]; conditions of the assay): less than 10% |
| C=C(C)[C@@H]1CC[C@]2(COC(=O)CCC(=O)O)CC[C@]3(C)[C@H](CC[C@@H]4[C@@]5(C)CC[C@H](OC(C)=O)C(C)(C)[C@@H]5CC[C@]43C)[C@@H]12 [Compound 3, 4-{[(3β)-3-(Acetyloxy)lup-20(29)-en-28-yl]oxy}-4-oxobutanoic Acid] | 189 to 191 °C |  |  |  |  |  | inhibition rates (CA II) [1]: less than 10% |
| C=C(C)[C@@H]1CC[C@]2(COC(=O)CCC(=O)Nc3nnc(S(N)(=O)=O)s3)CC[C@]3(C)[C@H](CC[C@@H]4[C@@]5(C)CC[C@H](OC(C)=O)C(C)(C)[C@@H]5CC[C@]43C)[C@@H]12 [Compound 6, (3β)-3-(Acetyloxy)lup-20(29)-en-28-yl 4-{[5-(aminosulfonyl)-1,3,4-thiadiazol-2-yl]amino}-4-oxobutanoate] |  |  |  |  |  |  | Ki [1]: 0.129 ± 0.02 µM; inhibition at 10 µM [1]: 93 ± 0.1%; mode of inhibition of CA II [1]: competitive inhibitor; EC50 ([2]; A-375, 72 h): 8.5 ± 0.7 µM; EC50 ([3]; HT-29, 72 h): 10.2 ± 1.3 µM; EC50 ([4]; MCF7, 72 h): 8.9 ± 0.7 µM; EC50 ([5]; A2780, 72 h): 9.3 ± 1.2 µM; EC50 ([6]; NIH3T3, 72 h): 9.5 ± 1 µM |
| CC(=O)O[C@H]1CC[C@]2(C)[C@H]3CC=C4[C@@H]5CC(C)(C)CC[C@]5(COC(=O)CCC(=O)Nc5nnc(S(N)(=O)=O)s5)CC[C@@]4(C)[C@]3(C)CC[C@H]2C1(C)C [Compound 18, (3β) 3-(Acetyloxy)olean-12-en-28-yl-4-{[5-(aminosulfonyl)-1,3,4-thiadiazol-2-yl]amino}-4-oxobutanoate] | 198 to 200 °C | 14.2 ± 1.4 µM | 10.6 ± 1.4 µM | 11.8 ± 1.4 µM | 14 ± 1.5 µM |  | inhibition at 10 µM [1, 7]: 49.4 ± 0.1%; EC50 [2, 8]: 10.1 ± 0.8 µM |
| CC(=O)O[C@H]1CC[C@]2(C)[C@H]3CC=C4[C@@H]5[C@@H](C)[C@H](C)CC[C@]5(COC(=O)CCC(=O)Nc5nnc(S(N)(=O)=O)s5)CC[C@@]4(C)[C@]3(C)CC[C@H]2C1(C)C [Compound 19, (3β)-3-(Acetyloxy)urs-12-en-28-yl-4-{[5-(aminosulfonyl)-1,3,4-thiadiazol-2-yl]amino}4-oxobutanoate] | 190 to 192 °C | 15 ± 0.6 µM | 12.4 ± 0.8 µM | 12.5 ± 1.7 µM | 14.8 ± 1.5 µM |  | Ki ([1]; CA II, Dixon plot, read-out: Ki): 0.91 ± 0.17 µM; inhibition at 10 µM [1, 7]: 70.8 ± 0.2%; EC50 [2, 8]: 13.7 ± 1.1 µM |
| CC(=O)O[C@H]1CC[C@]2(C)[C@H]3C(=O)C=C4[C@@H]5C[C@@](C)(COC(=O)CCC(=O)Nc6nnc(S(N)(=O)=O)s6)CC[C@]5(C)CC[C@@]4(C)[C@]3(C)CC[C@H]2C1(C)C [Compound 20, (3β, 20β) 3-(Acetyloxy)-11-oxoolean-12-en-30-yl-4-{[5-(aminosulfonyl)-1,3,4-thiadiazol-2-yl]amino}-4-oxobutanoate] | 179 to 181 °C | 13 ± 1.3 µM | 10.5 ± 1.2 µM | 9.8 ± 0.8 µM | 11.9 ± 1.7 µM |  | inhibition at 10 µM [1, 7]: 96.8 ± 0.2%; EC50 [2, 8]: 9.2 ± 0.5 µM |
| COc1cccc2c1C(=O)c1c(O)c3c(c(O)c1C2=O)C[C@@](O)(C(=O)CO)C[C@@H]3O[C@H]1C[C@H](N)[C@H](O)[C@H](C)O1 [DX, doxorubicin, reference compound] |  | 0.25 ± 0.02 µM | 0.1 ± 0.01 µM | 0.1 ± 0.01 µM | 0.01 ± 0.001 µM |  |  |
| C=C(C)[C@@H]1CC[C@]2(CO)CC[C@]3(C)[C@H](CC[C@@H]4[C@@]5(C)CC[C@H](O)C(C)(C)[C@@H]5CC[C@]43C)[C@@H]12 [betulin, reference compound] |  |  |  |  |  | did not inhibit the enzyme |  |
| C=C(C)[C@@H]1CC[C@]2(C(=O)O)CC[C@]3(C)[C@H](CC[C@@H]4[C@@]5(C)CC[C@H](O)C(C)(C)[C@@H]5CC[C@]43C)[C@@H]12 [betulinic acid, reference compound] |  |  |  |  |  | did not inhibit the enzyme |  |
| CC1(C)[C@@H](O)CC[C@]2(C)[C@H]3C(=O)C=C4[C@@H]5C[C@@](C)(C(=O)O)CC[C@]5(C)CC[C@@]4(C)[C@]3(C)CC[C@@H]12 [glycyrrhetinic acid, reference compound] |  |  |  |  |  | did not inhibit the enzyme |  |
| CC1(C)CC[C@]2(C(=O)O)CC[C@]3(C)C(=CC[C@@H]4[C@@]5(C)CC[C@H](O)C(C)(C)[C@@H]5CC[C@]43C)[C@@H]2C1 [oleanolic acid, reference compound] |  |  |  |  |  | did not inhibit the enzyme |  |
| C[C@H]1[C@H](C)CC[C@]2(C(=O)O)CC[C@]3(C)C(=CC[C@@H]4[C@@]5(C)CC[C@H](O)C(C)(C)[C@@H]5CC[C@]43C)[C@H]12 [ursolic acid, reference compound] |  |  |  |  |  | did not inhibit the enzyme |  |
